Laboratory results: patent US20100311714A1, “1H-IMIDAZO[4,5-c]QUINOLINONE COMPOUNDS” (priority 2009, published 2010)
Where two headings read alike, the source gives them in different places.

Key:
PI3K beta = biological target: T1, PI3K beta (Homo sapiens, UniProt P42338); experiment: PI3K beta kinase assay (Kinase-Glo luminescence); type: biochemical
T1 construct: for the full-length p110-b subunit are generated and fused by overlapping PCR; His tag (C); made in house; host or cells: baculovirus BV949; Tn5 (Trichoplusia ni) or TiniPro insect cells
T1 sequence (P42338 with tags, fused parts or gaps limits assumed): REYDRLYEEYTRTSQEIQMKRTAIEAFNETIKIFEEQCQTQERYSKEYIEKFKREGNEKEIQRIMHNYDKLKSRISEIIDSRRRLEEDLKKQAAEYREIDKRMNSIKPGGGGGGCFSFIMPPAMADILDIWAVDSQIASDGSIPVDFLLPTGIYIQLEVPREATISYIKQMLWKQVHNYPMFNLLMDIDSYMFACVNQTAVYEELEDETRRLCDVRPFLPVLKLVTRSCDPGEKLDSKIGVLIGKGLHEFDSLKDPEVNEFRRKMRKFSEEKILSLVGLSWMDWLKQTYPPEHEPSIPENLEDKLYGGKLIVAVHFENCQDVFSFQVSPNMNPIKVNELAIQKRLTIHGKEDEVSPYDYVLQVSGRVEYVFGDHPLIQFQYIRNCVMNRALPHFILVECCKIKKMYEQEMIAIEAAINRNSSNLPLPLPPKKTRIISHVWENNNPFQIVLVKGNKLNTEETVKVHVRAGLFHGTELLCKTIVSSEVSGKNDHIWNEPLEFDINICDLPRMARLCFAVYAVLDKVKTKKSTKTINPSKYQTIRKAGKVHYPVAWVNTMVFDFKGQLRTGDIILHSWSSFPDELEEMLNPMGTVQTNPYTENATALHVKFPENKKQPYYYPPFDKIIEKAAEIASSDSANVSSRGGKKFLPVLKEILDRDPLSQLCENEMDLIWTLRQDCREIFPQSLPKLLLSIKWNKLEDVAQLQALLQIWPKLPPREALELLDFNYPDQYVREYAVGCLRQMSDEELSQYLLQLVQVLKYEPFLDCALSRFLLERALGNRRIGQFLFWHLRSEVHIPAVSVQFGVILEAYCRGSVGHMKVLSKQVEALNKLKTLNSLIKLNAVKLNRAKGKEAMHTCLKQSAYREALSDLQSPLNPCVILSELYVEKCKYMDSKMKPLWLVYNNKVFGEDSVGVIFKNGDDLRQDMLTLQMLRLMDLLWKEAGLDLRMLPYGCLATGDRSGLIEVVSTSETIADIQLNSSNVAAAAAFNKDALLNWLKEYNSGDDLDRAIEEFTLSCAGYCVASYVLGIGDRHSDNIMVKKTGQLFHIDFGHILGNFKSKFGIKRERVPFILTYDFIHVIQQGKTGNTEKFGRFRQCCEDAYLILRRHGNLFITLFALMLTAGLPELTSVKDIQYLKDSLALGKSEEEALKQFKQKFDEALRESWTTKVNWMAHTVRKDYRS
Outline: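 Kinase-Glo luminescence read out ATP left after a 60-min room-temperature reaction, started with ATP (1 μM final) on 25 nM His-tagged p85 iSH2–p110β (BV949) plus 10 μg/mL PI substrate in pH 7.5 Tris buffer. Percent inhibition at eight concentrations was fitted to a four-parameter logistic model for IC50.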

mTOR = biological target: T2, mTOR (Homo sapiens, UniProt P42345); experiment: Biochemical assay for m-TOR by TR-FRET
T2 construct: purchased Invitrogen Corporation (Carlsbad/Calif., USA) PV4753
T2 sequence (P42345 1360-2549 limits assumed): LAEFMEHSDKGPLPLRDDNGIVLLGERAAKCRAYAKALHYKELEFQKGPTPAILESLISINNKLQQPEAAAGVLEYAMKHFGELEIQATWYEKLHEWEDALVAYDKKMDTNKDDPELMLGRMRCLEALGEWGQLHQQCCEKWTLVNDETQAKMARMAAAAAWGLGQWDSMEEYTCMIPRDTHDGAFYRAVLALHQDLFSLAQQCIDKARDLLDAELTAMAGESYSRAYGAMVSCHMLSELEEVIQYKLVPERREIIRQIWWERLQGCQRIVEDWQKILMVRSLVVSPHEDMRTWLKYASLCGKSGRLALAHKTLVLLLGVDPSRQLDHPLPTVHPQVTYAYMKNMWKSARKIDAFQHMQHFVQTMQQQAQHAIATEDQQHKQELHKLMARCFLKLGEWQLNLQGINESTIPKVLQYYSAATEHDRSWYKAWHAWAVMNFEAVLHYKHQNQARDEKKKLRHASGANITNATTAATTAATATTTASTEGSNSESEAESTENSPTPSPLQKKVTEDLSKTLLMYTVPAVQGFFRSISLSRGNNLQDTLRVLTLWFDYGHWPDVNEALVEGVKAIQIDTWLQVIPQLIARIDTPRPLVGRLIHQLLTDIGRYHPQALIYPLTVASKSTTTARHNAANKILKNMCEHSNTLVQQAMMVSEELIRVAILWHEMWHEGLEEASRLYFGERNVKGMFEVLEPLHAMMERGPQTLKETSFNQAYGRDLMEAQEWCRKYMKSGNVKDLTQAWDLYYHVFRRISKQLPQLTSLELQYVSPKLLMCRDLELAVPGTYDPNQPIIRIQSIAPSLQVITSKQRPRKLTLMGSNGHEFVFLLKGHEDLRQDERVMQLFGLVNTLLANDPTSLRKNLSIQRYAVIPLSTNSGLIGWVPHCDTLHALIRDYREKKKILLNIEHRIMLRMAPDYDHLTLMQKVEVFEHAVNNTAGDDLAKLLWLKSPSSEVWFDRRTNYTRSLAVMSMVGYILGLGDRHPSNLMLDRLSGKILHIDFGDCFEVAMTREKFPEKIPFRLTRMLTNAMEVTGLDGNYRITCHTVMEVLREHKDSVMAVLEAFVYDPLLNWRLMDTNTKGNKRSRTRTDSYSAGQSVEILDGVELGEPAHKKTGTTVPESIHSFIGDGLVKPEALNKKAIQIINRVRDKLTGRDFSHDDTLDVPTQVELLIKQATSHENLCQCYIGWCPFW
Outline: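 mTOR (0.5 nM) phosphorylates GFP-4EBP1 (400 nM) with 8 μM ATP at rt in 50 mM HEPES pH 7.5, 10 mM MnCl2, 50 mM NaCl, 1 mM EGTA, 1 mM DTT; compounds 0.003–10 μM final. EDTA stop with Tb-anti-p4EBP1[pT46] antibody (0.5 nM); TR-FRET read after 15 min against no-enzyme and vehicle controls.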

[1] = Parallel Artificial Membrane Permeability Assay (PAMPA) at pH 6.8; type: physicochemical
Outline: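 Reported as log Pe, membrane permeability was determined by parallel artificial membrane assay at pH 6.8 per Wohnsland–Faller.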

SMILES	IC50 (PI3K beta; read-out: EPK_PI3Kbeta/IC50)	IC50 (mTOR; read-out: EPK_mTOR/IC50)	HT-Perm logPe pH6.8 [1]	IC50 (PI3K beta; read-out: PI3Kbeta/IC50)	IC50 (mTOR; read-out: mTOR/IC50)	HT-perm/logPe pH6.8 [1]
COCCN(C)c1ccc(-n2c(=O)n(C)c3cnc4ccc(-c5cnc(N)c(C(F)(F)F)c5)cc4c32)c(C)n1 [Example 15.1, 8-(6-Amino-5-trifluoromethyl-pyridin-3-yl)-1-{6-[(2-methoxy-ethyl)-methyl-amino]-2-methyl-pyridin-3-yl}-3-methyl-1,3-dihydro-imidazo[4,5-c]quinolin-2-one]	15 nM	8 nM	−4			
CNc1ncc(-c2ccc3ncc4c(c3c2)n(-c2ccc(C)nc2C)c(=O)n4C)cn1 [Example 14.4, 1-(2,6-Dimethyl-pyridin-3-yl)-3-methyl-8-(2-methylamino-pyrimidin-5-yl)-1,3-dihydro-imidazo[4,5-c]quinolin-2-one]	282 nM	14 nM	−4.6			
Cc1ccc(-n2c(=O)n(C)c3cnc4ccc(-c5cnc6c(ccn6C)c5)cc4c32)c(C)n1 [Example 14.7, 1-(2,6-Dimethyl-pyridin-3-yl)-3-methyl-8-(1-methyl-1H-pyrrolo[2,3-b]pyridin-5-yl)-1,3-dihydro-imidazo[4,5-c]quinolin-2-one]	1100 nM	13 nM	−4.3			
COCCOc1ccc(-n2c(=O)n(C)c3cnc4ccc(-c5cnc(N)c(C(F)(F)F)c5)cc4c32)c(C)n1 [Example 13.2, 8-(6-Amino-5-trifluoromethyl-pyridin-3-yl)-1-[6-(2-methoxy-ethoxy)-2-methyl-pyridin-3-yl]-3-methyl-1,3-dihydro-imidazo[4,5-c]quinolin-2-one]	20 nM	18 nM	−3.7			
Cc1ccc(-n2c(=O)n(C)c3cnc4ccc(-c5cncc(NC(C)C)c5)cc4c32)c(C)n1 [Example 14.8, 1-(2,6-Dimethyl-pyridin-3-yl)-8-(5-isopropylamino-pyridin-3-yl)-3-methyl-1,3-dihydro-imidazo[4,5-c]quinolin-2-one]	53 nM	28 nM	−4.1			
CNc1ccc(-c2ccc3ncc4c(c3c2)n(-c2cccnc2OC)c(=O)n4C)cn1 [Example 1.4, 1-(2-Methoxy-pyridin-3-yl)-3-methyl-8-(6-methylamino-pyridin-3-yl)-1,3-dihydro-imidazo[4,5-c]quinolin-2-one]				374 nM	25 nM	−3.9
COc1ccc(-c2ccc3ncc4c(c3c2)n(-c2cccnc2OC)c(=O)n4C)cn1 [Example 1.1, 1-(2-Methoxy-pyridin-3-yl)-8-(6-methoxy-pyridin-3-yl)-3-methyl-1,3-dihydro-imidazo[4,5-c]quinolin-2-one]				202 nM	36 nM	−3.6
CNc1ncc(-c2ccc3ncc4c(c3c2)n(-c2cccnc2C)c(=O)n4C)cn1 [Example 2.2, 3-Methyl-8-(2-methylamino-pyrimidin-5-yl)-1-(2-methyl-pyridin-3-yl)-1,3-dihydro-imidazo[4,5-c]quinolin-2-one]				165 nM	8 nM	−4.7
CNc1ncc(-c2ccc3ncc4c(c3c2)n(-c2ccc(F)nc2C)c(=O)n4C)cc1F [Example 7.12, 8-(5-Fluoro-6-methylamino-pyridin-3-yl)-1-(6-fluoro-2-methyl-pyridin-3-yl)-3-methyl-1,3-dihydro-imidazo[4,5-c]quinolin-2-one]	265 nM	66 nM	−3.7			
CNc1ccc(-c2ccc3ncc4c(c3c2)n(-c2ccc(OCCOC)nc2C)c(=O)n4C)cn1 [Example 13.3, 1-[6-(2-Methoxy-ethoxy)-2-methyl-pyridin-3-yl]-3-methyl-8-(6-methylamino-pyridin-3-yl)-1,3-dihydro-imidazo[4,5-c]quinolin-2-one]	502 nM	14 nM	−4			
Cc1ncccc1-n1c(=O)n(C)c2cnc3ccc(-c4cnc5c(ccn5C)c4)cc3c21 [Example 2.14, 3-Methyl-1-(2-methyl-pyridin-3-yl)-8-(1-methyl-1H-pyrrolo[2,3-b]pyridin-5-yl)-1,3-dihydro-imidazo[4,5-c]quinolin-2-one]				315 nM	24 nM	−3.9

The remaining lines, values ahead:

IC50 (PI3K beta; read-out: EPK_PI3Kbeta/IC50)	IC50 (mTOR; read-out: EPK_mTOR/IC50)	HT-Perm logPe pH6.8 [1]	IC50 (PI3K beta; read-out: PI3Kbeta/IC50)	IC50 (mTOR; read-out: mTOR/IC50)	HT-perm/logPe pH6.8 [1]	SMILES
38 nM	3 nM	−4.8				CNc1cc(-c2ccc3ncc4c(c3c2)n(-c2ccc(C(F)(F)F)nc2C)c(=O)n4C)cnc1CO [Example 33.2, 8-(6-Hydroxymethyl-5-methylamino-pyridin-3-yl)-3-methyl-1-(2-methyl-6-trifluoromethyl-pyridin-3-yl)-1,3-dihydro-imidazo[4,5-c]quinolin-2-one]
407 nM	11 nM	−3.7				CNc1ccc(-c2ccc3ncc4c(c3c2)n(-c2ccc(N(C)CCOC)nc2C)c(=O)n4C)cn1 [Example 15.4, 1-{6-[(2-Methoxy-ethyl)-methyl-amino]-2-methyl-pyridin-3-yl}-3-methyl-8-(6-methylamino-pyridin-3-yl)-1,3-dihydro-imidazo[4,5-c]quinolin-2-one]
1330 nM	704 nM	−4.2				CNc1ccc(-c2ccc3ncc4c(c3c2)n(-c2cnc(F)cc2C)c(=O)n4C)cn1 [Example 16.4, 1-(6-Fluoro-4-methyl-pyridin-3-yl)-3-methyl-8-(6-methylamino-pyridin-3-yl)-1,3-dihydro-imidazo[4,5-c]quinolin-2-one]
279 nM	75 nM	−3.9				COCCN(C)c1ccc(-n2c(=O)n(C)c3cnc4ccc(-c5cnc6c(ccn6C)c5)cc4c32)c(C)n1 [Example 15.7, 1-{6-[(2-Methoxy-ethyl)-methyl-amino]-2-methyl-pyridin-3-yl}-3-methyl-8-(1-methyl-1H-pyrrolo[2,3-b]pyridin-5-yl)-1,3-dihydro-imidazo[4,5-c]quinolin-2-one]
3950 nM	484 nM	−4.5				CCOc1ccc(-c2ccc3ncc4c(c3c2)n(-c2cncc(C)c2)c(=O)n4C)cn1 [Example 17.1, 8-(6-Ethoxy-pyridin-3-yl)-3-methyl-1-(5-methyl-pyridin-3-yl)-1,3-dihydro-imidazo[4,5-c]quinolin-2-one]
150 nM	53 nM	−3.8				CCNc1cc(-c2ccc3ncc4c(c3c2)n(-c2cnc(F)cc2C)c(=O)n4C)cnc1C [Example 16.2, 8-(5-Ethylamino-6-methyl-pyridin-3-yl)-1-(6-fluoro-4-methyl-pyridin-3-yl)-3-methyl-1,3-dihydro-imidazo[4,5-c]quinolin-2-one]
99 nM	3 nM	−3.9				CNc1ncc(-c2ccc3ncc4c(c3c2)n(-c2ccc(N(C)C)nc2C)c(=O)n4C)cn1 [Example 19.1, 1-(6-Dimethylamino-2-methyl-pyridin-3-yl)-3-methyl-8-(2-methylamino-pyrimidin-5-yl)-1,3-dihydro-imidazo[4,5-c]quinolin-2-one]
98 nM	11 nM	−5.1				COCCN(C)c1ccc(-n2c(=O)n(C)c3cnc4ccc(-c5cncc(N)c5)cc4c32)c(C)n1 [Example 15.8, 8-(5-Amino-pyridin-3-yl)-1-{6-[(2-methoxy-ethyl)-methyl-amino]-2-methyl-pyridin-3-yl}-3-methyl-1,3-dihydro-imidazo[4,5-c]quinolin-2-one]
28 nM	6 nM	−3.6				CCNc1cc(-c2ccc3ncc4c(c3c2)n(-c2ccc(N(C)CCOC)nc2C)c(=O)n4C)cnc1C [Example 15.6, 8-(5-Ethylamino-6-methyl-pyridin-3-yl)-1-{6-[(2-methoxy-ethyl)-methyl-amino]-2-methyl-pyridin-3-yl}-3-methyl-1,3-dihydro-imidazo[4,5-c]quinolin-2-one]
62 nM	139 nM	−3.8				Cc1nc(C(C)(C)O)ccc1-n1c(=O)n(C)c2cnc3ccc(-c4cncc(OC(C)C)c4)cc3c21 [Example 31.9, 1-[6-(1-Hydroxy-1-methyl-ethyl)-2-methyl-pyridin-3-yl]-8-(5-isopropoxy-pyridin-3-yl)-3-methyl-1,3-dihydro-imidazo[4,5-c]quinolin-2-one]
13 nM	25 nM	−4.9				Cc1nc(N2CCC(O)C2)ccc1-n1c(=O)n(C)c2cnc3ccc(-c4cncc(OC(C)C)c4)cc3c21 (stereo not drawn) [Example 27.1, 1-[6-(3-Hydroxy-pyrrolidin-1-yl)-2-methyl-pyridin-3-yl]-8-(5-isopropoxy-pyridin-3-yl)-3-methyl-1,3-dihydro-imidazo[4,5-c]quinolin-2-one]
34 nM	68 nM	−4.3				Cc1nc(N2CC(F)(F)C(F)(F)C2)ccc1-n1c(=O)n(C)c2cnc3ccc(-c4cncc(C(C)(C)O)c4)cc3c21 [Example 35.1, 8-[5-(1-Hydroxy-1-methyl-ethyl)-pyridin-3-yl]-3-methyl-1-[2-methyl-6-(3,3,4,4-tetrafluoro-pyrrolidin-1-yl)-pyridin-3-yl]-1,3-dihydro-imidazo[4,5-c]quinolin-2-one]
